Each structure is given as a SMILES string. Like-named read-outs stand apart in the source and are kept apart here.

The values that follow come from US20230113802A1, “COMPOSITION AND METHOD TO PREPARE LONG-ACTING INJECTABLE SUSPENSION CONTAINING MULTIPLE CANCER DRUGS” (University of Washington, priority 2020, published 2023).

The nature of data set [1]: Association efficiency of venetoclax and zanubrutinib with DcNP's by dialysis. In kind it is physicochemical. As to the method:
85.4 mg DSPC, 33.6 mg DSPE-mPEG2000, 9.6 mg ABT-199, and 9.6 mg BGB-3111 were dissolved in 4 mL pre-warmed 70° C. tert-butyl alcohol. The solution was thoroughly mixed, lyophilized over 24 hrs, and reconstituted in 0.9% NaCl, 20 mM NaHCO3 buffer with trace TWEEN® 20. The resulting drug-combination, stabilized by lipid excipients and referred to as drug combination nanoparticle or DcNP's, were then filtered through an Acrodisc® CR syringe filter (0.2 μm PTFE Membrane, HPLC certified) and diluted with buffer solution to the desired concentration. Particle size was quantified using a NICOMP 380 ZLS (Zeta Potential/Particle Sizer). The extent of ABT-199 and BGB-3111 association with the DcNP particles in solution was analyzed via dialysis (6,000-8,000 molecular weight cutoff) under sink conditions; sink condition was achieved by dialyzing 200 μl of DcNP suspension against 200 mL buffer solution (1,000-fold volume change) for 4 hrs. The drug association efficiency (AE %) was determined by comparing the pre- and post-dialysis drug concentration ratios of each drug. Drug concentration was determined by the extraction drug in suspension and analyzed based on a LC-MS/MS assay as described below.
Following initial rehydration and without any sonication, particle size of the DcNP's with and without TWEEN20 was measured using the Zetasizer (FIG. 10). […] Without Tween20, DcNP size was primarily 39 nm in diameter (92%) with less than 8% of particles measuring 870 nm in diameter (FIG. 10). Particle size was determined via dynamic light scattering, and association efficiency (FIG. 11) is a normalized mass/mass ratio calculated by comparing amount of drug remaining associated with DcNP's compared to the overall amount of drug used to create the particles.

Data set [2] deals with HL-60 cells. The data set is described as follows: AlamarBlue cell growth inhibition, HL-60. As to conditions: Homo sapiens; for IC50: 120 h, HL-60, five days; for EC50: HL-60, 120 h, HL60 (Bcl-2 +, BTK +), 5 days, read-out: Inhibitory effects (EC50). The class given is cell-based. As to the method:
(§1) K-562 cells (human leukemia) were purchased from ATCC (Manassas, USA). Additional human leukemic cell lines, MOLT-4 and HL-60, were a generous gift from Carrie Cummings at Fred Hutchinson Cancer Research Center (Seattle, USA). All cells were cultured in Gibco RPMI medium 1640 with Gibco 1% 100×Antibiotic-Antimycotic (Thermo Fisher Scientific, Waltham, USA) and 10% fetal bovine serum. Cells were selected for their different protein expression levels of Bruton's Tyrosine Kinase (BTK) and B Cell Lymphoma 2 (Bcl-2); HL-60 cells express both BTK and Bcl-2, while K-562 and MOLT-4 cells only express BTK and Bcl-2, respectively.
(§2) Each cell line was seeded separately into Costar® Black 96-well Assay Plates (Corning USA). Within 1 hr, varying concentrations of individual free drug (ABT-199 or BGB-3111), a combination of both free drugs (w/w 1:1), or a combination of drugs within DcNP's were added to the cells. Following a 5-day incubation, growth of treated cells was compared to untreated cells, quantified using an AlamarBlue Cell Viability Assay (Thermo Fisher Scientific, Waltham, USA) with a PerkinElmer 1420 Multilabel Counter plate reader. Prism graphing software (GraphPad) was used to analyze the absorbance data and to assess relative cell growth.
(§3) The effects of DcNP formulation on the effectiveness of ABT-199 and BGB-3111 to inhibit cells that express Bcl-2 and BTK targets is shown in Table 6. Three immortalized human cell lines were selected based on their expression of Bcl-2 (B-cell lymphoma 2; target of venetoclax) and BTK (Bruton's tyrosine kinase; target of zanubrutinib). Cell lines were seeded in 96-well plates at 75,000 cells per well. In separate sets of wells, venetoclax and zanubrutinib were incubated with the cells for 5 days individually as free drug, together as free drug, and together as the drug combination nanoformulation. An AlamarBlue assay was performed to determine relative inhibition of cell growth due to drug presence.
(Resazurin is reduced to fluorescent resorufin, in cell work by metabolically active cells.)

Data set [3] concerns K-562 cells. Briefly: AlamarBlue cell growth inhibition, K-562. The class given is cell-based. As to conditions: Homo sapiens; for EC50: 120 h, K562 (Bcl-2 −, BTK +), 5 days, read-out: Inhibitory effects (EC50); for IC50: K562, 120 h, K-562, five days, read-out: IC50 (sensitivity). As to the method: as §1, §2, §3
For data set [4], the system named is HL-60 cells. Briefly: Leukemic cell uptake of free versus DcNP-associated drug, HL-60. The class given is cell-based, human. As to conditions: up to 4 hours. As to the method:
(§4) FIGS. 13A-13D are a series of graphs showing the intracellular drug concentrations following incubation with free or DcNP-bound drug. Three leukemic cell lines were incubated with either free or DcNP-bound drug over four hours, and intracellular drug concentration was measured via LC-MS/MS. Both free drugs show relatively little drug uptake compared to the DcNP formulation. Free drug concentrations are roughly a quarter of the DcNP drug concentrations.
(§5) To quantify drug concentrations (both DcNP-bound and free drug), an extraction protocol was established to quantify venetoclax and zanubrutinib. In short, drug was solubilized by diluting the sample into ethyl acetate, liberating it from either the DcNP lipid matrix, mouse plasma, or both. Following centrifugation to remove organic material, the samples were dried with nitrogen gas, reconstituted in acetonitrile, and loaded onto an LC-MS/MS. Drug concentrations were quantified by comparing sample data with standard curves prepared from untreated mouse plasma spiked with known amounts of drug.
(§6) Separations were carried out on a Synergi column (100×2.0 mm) (Phenomenex, Torrance, USA). A C8 guard column (4.0×2.0 mm) was used (Phenomenex, USA). The separations were done under ambient temperature, and the flow rate was set to 0.55 ml/min. The mobile phase for the separations consisted of buffers A (water with 20 mM ammonium acetate) and B (acetonitrile). The single mobile phase ran for five minutes, and it consisted of 25% buffer A and 75% buffer B.
(§7) HL-60 cells were cultured, counted, and aliquoted into multiple 1.5 mL Eppendorf tubes. A free drug solution of ABT-199 and BGB-3111 (1:1 w/w) was added to half of the tubes, while a DcNP solution of identical drug concentrations was added to the second half of tubes. The cells in the tubes were then allowed to incubate normally. At preselected time points, one incubation tube from each group was removed from the incubator, and the cells inside were washed twice with media to remove external drug and DcNP's. Cells were then lysed with acetonitrile, and drug concentrations were quantified according to the aforementioned extraction and LC-MS/MS protocol.

For data set [5], the system named is K-562 cells. The data set is described as follows: Leukemic cell uptake of free versus DcNP-associated drug, K-562. In kind it is cell-based, human. On the procedure:
as §4, §5, §6, §7

Data set [6] concerns MOLT-4 cells. The data set is described as follows: Leukemic cell uptake of free versus DcNP-associated drug, MOLT-4. The class given is cell-based, human. On the procedure: as §4, §5, §6, §7
The conditions of data set [7]: at 25° C.; cited from earlier work.
[8] abbreviates: HL-60, incubation with free drug (1:1 w/w).
Setting [9] is: K-562, incubation with free drug.
The mark [10] stands for this setting: MOLT-4, incubation with free drug.

A word on the IC50: it is the point on the concentration scale where inhibition reaches its midpoint. The term EC50 denotes the midpoint of the concentration-response curve. In the case of `CC1(C)CCC(CN2CCN(c3ccc(C(=O)NS(=O)(=O)c4ccc(NCC5CCOCC5)c([N+](=O)[O-])c4)c(Oc4cnc5[nH]ccc5c4)c3)CC2)=C(c2ccc(Cl)cc2)C1` [Venetoclax, 4-[4-[[2-(4-chlorophenyl)-4,4-dimethylcyclohexen-1-yl]methyl]piperazin-1-yl]-N-[3-nitro-4-(oxan-4-ylmethylamino)phenyl]sulfonyl-2-(1H-pyrrolo[2,3-b]pyridin-5-yloxy)benzamide], the “AE % (association efficiency with the DcNP lipid platform)” value in data set [1] (with TWEEN20, day 1) turned out to be 100%; in data set [1] (with TWEEN20, day 70), 99.91%; in data set [1] (without TWEEN20, day 1), 100%; in data set [1] (without TWEEN20, day 70) it was 100%. For the same molecule, the IC50 in data set [2] (read-out: IC50) is 0.00192 µg/mL; in data set [3], 15.9 µg/mL. The EC50 in data set [2] was 0.0019 µg/mL; in data set [3], 16 µg/mL. Moreover, the “peak intracellular drug concentration” value is 674 ng/million cells in data set [4] (HL-60, incubation with DcNP's); 192 ng/million cells in data set [4] (setting [8]); 647 ng/million cells in data set [5] (K-562, incubation with DcNP's); 192 ng/million cells in data set [5] (setting [9]); 718 ng/million cells in data set [6] (MOLT-4, incubation with DcNP's); 176 ng/million cells in data set [6] (setting [10]). Moreover, in data set [7], the Water solubility was 0.933 µg/mL.

With `C=CC(=O)N1CCC([C@@H]2CCNc3c(C(N)=O)c(-c4ccc(Oc5ccccc5)cc4)nn32)CC1` [Zanubrutinib, (7S)-2-(4-phenoxyphenyl)-7-(1-prop-2-enoylpiperidin-4-yl)-4,5,6,7-tetrahydropyrazolo[1,5-a]pyrimidine-3-carboxamide], the “AE % (association efficiency with the DcNP lipid platform)” value in data set [1] (with TWEEN20, day 1) was determined as 98.52%; in data set [1] (with TWEEN20, day 70), 93.05%; in data set [1] (without TWEEN20, day 1), 99.99%; in data set [1] (without TWEEN20, day 70), 95.50%. The values for the IC50 in data set [2] (read-out: IC50 (sensitivity)) and in data set [3] were 10.3 µg/mL and 8.3 µg/mL, respectively. Moreover, the EC50 in data set [2] turned out to be 10 µg/mL; in data set [3], 8.4 µg/mL. Moreover, the “peak intracellular drug concentration” value is reported as 256 ng/million cells in data set [4] (HL-60, incubation with DcNP's); 69 ng/million cells in data set [4] (setting [8]); 647 ng/million cells in data set [5] (K-562, incubation with DcNP's); 109 ng/million cells in data set [5] (setting [9]); 208 ng/million cells in data set [6] (MOLT-4, incubation with DcNP's); 42 ng/million cells in data set [6] (setting [10]). In addition, in data set [7], the Water solubility is 10.3 µg/mL.
